In publication PMC7377239, “Cardiovascular Effects of Polychlorinated Biphenyls and Their Major Metabolites” (Environmental Health Perspectives, 2020):
Like-named read-outs stand apart in the source and are kept apart here.

Columns and labels:
HUVECs = assay: High-content imaging cytotoxicity in HUVECs, 24 h; format: cell-based, human; conditions: Homo sapiens, HUVEC, 24 h, HUVECs; for viability at 0.01 µM / activity at 0.01 µM / viability at 0.1 µM / activity at 0.1 µM / viability at 1 µM / activity at 1 µM / viability at 10 µM / activity at 10 µM / viability at 100 µM / activity at 100 µM: 0.00 µM = 100.00; for viability at 0.1 µM / activity at 0.1 µM: 0.10 µM; for minimal effective concentration: top concentration 100.00 µM
Summary of the method: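 Point-of-departure values come from four-parameter logistic fits of vehicle-normalized (0.5% DMSO) imaging readouts, cutoff one SD of vehicle means, 100μM where no concentration–response. Cells: HUVEC monolayers, passages 1–5, treated 24 h at 37°C, 5% CO2, then Hoechst 33342/MitoTracker Orange/calcein AM stained, imaged at 10×.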

[1] = test system: iCell cardiomyocytes (human iPSC-derived cardiomyocytes); assay: High-content imaging of cytotoxicity and mitochondrial integrity in iPSC-CMs; format: cell-based; conditions: Homo sapiens, Cardiomyocyte; for viability at 0.01 µM / activity at 0.01 µM / viability at 0.1 µM / activity at 0.1 µM / viability at 1 µM / activity at 1 µM / viability at 10 µM / activity at 10 µM / viability at 100 µM / activity at 100 µM: 0.00 µM = 100.00; for viability at 0.1 µM / activity at 0.1 µM: 0.10 µM
Summary of the method: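 Cardiomyocytes grown on gelatinized 384-well plates received fresh medium on the experiment day and were then exposed to chemicals at 0.01–100μM. Nuclei and mitochondria were labeled with Hoechst 33342 and MitoTracker™ Orange, then fixed, and imaged on an ImageXpress® Micro Confocal system. Four-parameter logistic concentration–response fits in R, with a one-standard-deviation vehicle cutoff, gave point-of-departure values.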

[2] = 24 hr, read-out: huvec.cyto.24hr
[3] = 24 hr, read-out: huvec.mito.24hr
[4] = 24 hr, read-out: huvec.mitoint.24hr
[5] = 24 hr, read-out: huvec.nma.24hr
[6] = 24 hrs, read-out: huvec.tc.24hrs
[7] = 1.5 h, 90min, read-out: cm.cam.90min
[8] = 1.5 h, 90min, read-out: cm.mii.90min
[9] = 1.5 h, 90min, read-out: cm.mito.90min
[10] = 1.5 h, 90min, read-out: cm.tc.90min
[11] = 24 h, 24hrs, read-out: cm.cam.24hrs
[12] = 24 h, 24hrs, read-out: cm.mii.24hrs
[13] = 24 h, 24hrs, read-out: cm.mito.24hrs
[14] = 24 h, 24hrs, read-out: cm.tc.24hrs

`Clc1ccc(Cl)c(-c2cc(Cl)ccc2Cl)c1` [PCB52] showed a viability at 0.01 µM (HUVECs; [2]) of 94.7%, an activity at 0.01 µM (HUVECs; [3]) of 94.8% and an activity at 0.01 µM (HUVECs; [4]) of 107%. For the same compound, the activity at 0.01 µM (HUVECs; [5]) was 101%, the viability at 0.1 µM (HUVECs; [2]) was 97.3% and the activity at 0.1 µM (HUVECs; [3]) was 96.5%. For the same compound, the activity at 0.1 µM (HUVECs; [4]) was 116%, the activity at 0.1 µM (HUVECs; [5]) was 97.7% and the viability at 1 µM (HUVECs; [2]) was 92.5%. It also gave an activity at 1 µM (HUVECs; [3]) of 92%, an activity at 1 µM (HUVECs; [4]) of 106% and an activity at 1 µM (HUVECs; [5]) of 100%. It also gave a viability at 10 µM (HUVECs; [2]) of 66.8%, an activity at 10 µM (HUVECs; [3]) of 60% and an activity at 10 µM (HUVECs; [4]) of 55.7%. For the same compound, the activity at 10 µM (HUVECs; [5]) was 74.2%, the viability at 100 µM (HUVECs; [2]) was 45% and the activity at 100 µM (HUVECs; [3]) was 20.7%. The activity at 100 µM (HUVECs; [4]) was 14.1%, the activity at 100 µM (HUVECs; [5]) was 49.2% and the minimal effective concentration (HUVECs; 24 hr, read-out: huvec.cyto.24hr POD) was 0.67 µM. The minimal effective concentration (HUVECs; 24 hr, read-out: huvec.mito.24hr POD) was 0.57 µM, the minimal effective concentration (HUVECs; 24 hr, read-out: huvec.mitoint.24hr POD) was 6.01 µM and the minimal effective concentration (HUVECs; 24 hr, read-out: huvec.nma.24hr POD) was 4.97 µM. It also gave a viability at 0.01 µM (HUVECs; [6]) of 94.7%, a viability at 0.1 µM (HUVECs; [6]) of 97.3% and a viability at 1 µM (HUVECs; [6]) of 92.5%. It also gave a viability at 10 µM (HUVECs; [6]) of 66.8%, a viability at 100 µM (HUVECs; [6]) of 45% and a minimal effective concentration (HUVECs; 24 hrs, read-out: huvec.tc.24hrs POD) of 0.67 µM. It also gave a viability at 0.01 µM [1, 7] of 98.6%, an activity at 0.01 µM [1, 8] of 115% and an activity at 0.01 µM [1, 9] of 98.4%. The viability at 0.01 µM [1, 10] was 98.4%, the viability at 0.1 µM [1, 7] was 95.8% and the activity at 0.1 µM [1, 8] was 118%. The activity at 0.1 µM [1, 9] was 95.7%, the viability at 0.1 µM [1, 10] was 95.6% and the viability at 1 µM [1, 7] was 101%. The activity at 1 µM [1, 8] was 107%, the activity at 1 µM [1, 9] was 102% and the viability at 1 µM [1, 10] was 102%. The viability at 10 µM [1, 7] was 106%, the activity at 10 µM [1, 8] was 94.2% and the activity at 10 µM [1, 9] was 106%. It also gave a viability at 10 µM [1, 10] of 106%, a viability at 100 µM [1, 7] of 0.44% and an activity at 100 µM [1, 8] of 12.8%. The activity at 100 µM [1, 9] was 0.55%, the viability at 100 µM [1, 10] was 1.04% and the minimal effective concentration ([1]; 1.5 h, 90min, read-out: cm.cam.90min POD) was 36 µM. The minimal effective concentration ([1]; 1.5 h, 90min, read-out: cm.mii.90min POD) was 10.4 µM, the minimal effective concentration ([1]; 1.5 h, 90min, read-out: cm.mito.90min POD) was 39.2 µM and the minimal effective concentration ([1]; 1.5 h, 90min, read-out: cm.tc.90min POD) was 38.9 µM. For the same compound, the viability at 0.01 µM [1, 11] was 93.5%, the activity at 0.01 µM [1, 12] was 103% and the activity at 0.01 µM [1, 13] was 91.8%. For the same compound, the viability at 0.01 µM [1, 14] was 94.3%, the viability at 0.1 µM [1, 11] was 98.9% and the activity at 0.1 µM [1, 12] was 117%. The activity at 0.1 µM [1, 13] was 99.3%, the viability at 0.1 µM [1, 14] was 98.8% and the viability at 1 µM [1, 11] was 95.8%. For the same compound, the activity at 1 µM [1, 12] was 112%, the activity at 1 µM [1, 13] was 95.8% and the viability at 1 µM [1, 14] was 96.3%. It also gave a viability at 10 µM [1, 11] of 92%, an activity at 10 µM [1, 12] of 103% and an activity at 10 µM [1, 13] of 90.3%. The viability at 10 µM [1, 14] was 92.3%, the viability at 100 µM [1, 11] was 3.37% and the activity at 100 µM [1, 12] was 5.38%. The activity at 100 µM [1, 13] was 0.14%, the viability at 100 µM [1, 14] was 7.71% and the minimal effective concentration ([1]; 24 h, read-out: cm.cam.24hrs POD) was 7.5 µM. The minimal effective concentration ([1]; 24 h, read-out: cm.mii.24hrs POD) was 34.4 µM, the minimal effective concentration ([1]; 24 h, read-out: cm.mito.24hrs POD) was 7.32 µM and the minimal effective concentration ([1]; 24 h, read-out: cm.tc.24hrs POD) was 8.11 µM.
